Laboratory results taken from PubChem BioAssay (NCI).
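Grown in 96-well plates, cells were treated for 48 hours with each compound at five concentrations. Insufficient inhibition: endpoint recorded as highest concentration tested. The concentration for full growth arrest is given as TGI.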

How the values were obtained:
Assay in all cases: NCI anticancer screen, dose series, 48 h
[1] = test system: 786-0 renal
[2] = test system: A498 renal
[3] = test system: A549 NSCLC
[4] = test system: ACHN renal
[5] = test system: CAKI-1 renal
[6] = test system: CCRF-CEM leukemia
[7] = test system: COLO 205 colon
[8] = test system: DLD-1 colon
[9] = test system: DMS 114 small cell lung
[10] = test system: DMS 273 small cell lung
[11] = test system: EKVX NSCLC
[12] = test system: HCC-2998 colon
[13] = test system: HCT-116 colon
[14] = test system: HCT-15 colon
[15] = test system: HL-60(TB) leukemia
[16] = test system: HOP-18 NSCLC
[17] = test system: HOP-62 NSCLC
[18] = test system: HOP-92 NSCLC
[19] = test system: HT29 colon
[20] = test system: IGROV1 ovarian
[21] = test system: K-562 leukemia
[22] = test system: KM12 colon
[23] = test system: KM20L2 colon
[24] = test system: LOX IMVI melanoma
[25] = test system: LXFL 529 NSCLC
[26] = test system: M14 melanoma
[27] = test system: M19-MEL melanoma
[28] = test system: MALME-3M melanoma
[29] = test system: MOLT-4 leukemia
[30] = test system: NCI-H226 lung
[31] = test system: NCI-H23 lung
[32] = test system: NCI-H460 lung
[33] = test system: NCI-H522 lung
[34] = test system: OVCAR-3 ovarian
[35] = test system: OVCAR-4 ovarian
[36] = test system: OVCAR-5 ovarian
[37] = test system: OVCAR-8 ovarian
[38] = test system: RPMI-8226 leukemia
[39] = test system: RXF 393 renal
[40] = test system: RXF-631 renal
[41] = test system: SF-268 CNS
[42] = test system: SF-295 CNS
[43] = test system: SF-539 CNS
[44] = test system: SK-MEL-2 melanoma
[45] = test system: SK-MEL-28 melanoma
[46] = test system: SK-MEL-5 melanoma
[47] = test system: SK-OV-3 ovarian
[48] = test system: SN12C renal
[49] = test system: SNB-19 CNS
[50] = test system: SNB-75 CNS
[51] = test system: SNB-78 CNS
[52] = test system: SR leukemia
[53] = test system: SW-620 colon
[54] = test system: TK-10 renal
[55] = test system: UACC-257 melanoma
[56] = test system: UACC-62 melanoma
[57] = test system: UO-31 renal
[58] = test system: XF 498 CNS
[59] = test system: U251 CNS

O=C(/C=C/c1ccccc1F)c1ccc(Cl)c(Cl)c1
TGI [1]: 31.4 µM
TGI [2]: > 59.3 µM
TGI [3]: > 100 µM
TGI [4]: > 100 µM
TGI [5]: > 80.2 µM
TGI [6]: 67.8 µM
TGI [7]: > 100 µM
TGI [8]: > 62.9 µM
TGI [9]: 55.5 µM
TGI [10]: > 100 µM
TGI [11]: > 100 µM
TGI [12]: > 71 µM
TGI [13]: 32.1 µM
TGI [14]: > 87 µM
TGI [15]: 51.4 µM
TGI [16]: > 100 µM
TGI [17]: > 100 µM
TGI [18]: > 100 µM
TGI [19]: > 75.2 µM
TGI [20]: > 72.6 µM
TGI [21]: 48.4 µM
TGI [22]: 45 µM
TGI [23]: > 100 µM
TGI [24]: 23.6 µM
TGI [25]: 35.6 µM
TGI [26]: > 100 µM
TGI [27]: 58.1 µM
TGI [28]: > 100 µM
TGI [29]: 77 µM
TGI [30]: > 100 µM
TGI [31]: 24 µM
TGI [32]: > 100 µM
TGI [33]: 61.2 µM
TGI [34]: > 71.6 µM
TGI [35]: > 100 µM
TGI [36]: > 100 µM
TGI [37]: > 100 µM
TGI [38]: > 75.6 µM
TGI [39]: 62.4 µM
TGI [40]: > 100 µM
TGI [41]: > 100 µM
TGI [42]: > 100 µM
TGI [43]: > 100 µM
TGI [44]: > 100 µM
TGI [45]: > 100 µM
TGI [46]: > 84.1 µM
TGI [47]: > 100 µM
TGI [48]: 98.5 µM
TGI [49]: > 100 µM
TGI [50]: 98.5 µM
TGI [51]: > 100 µM
TGI [52]: > 100 µM
TGI [53]: > 66.3 µM
TGI [54]: > 100 µM
TGI [55]: > 100 µM
TGI [56]: > 100 µM
TGI [57]: > 100 µM
TGI [58]: 77 µM

O=C(CC1OC(O)C(Cl)=C1Cl)c1cccnc1 (stereo not given)
TGI [1]: > 60.1 µM
TGI [2]: > 100 µM
TGI [3]: > 100 µM
TGI [4]: > 31.6 µM
TGI [5]: > 100 µM
TGI [6]: > 100 µM
TGI [7]: > 100 µM
TGI [9]: > 56.5 µM
TGI [10]: > 100 µM
TGI [11]: > 100 µM
TGI [12]: > 100 µM
TGI [13]: > 54.8 µM
TGI [14]: > 56.8 µM
TGI [15]: > 100 µM
TGI [16]: > 100 µM
TGI [17]: > 77.7 µM
TGI [18]: > 100 µM
TGI [19]: > 59.7 µM
TGI [20]: > 100 µM
TGI [21]: > 100 µM
TGI [22]: > 100 µM
TGI [23]: > 100 µM
TGI [24]: > 100 µM
TGI [25]: > 100 µM
TGI [26]: > 100 µM
TGI [27]: > 100 µM
TGI [28]: > 100 µM
TGI [29]: > 100 µM
TGI [30]: > 100 µM
TGI [31]: > 100 µM
TGI [32]: > 100 µM
TGI [33]: > 100 µM
TGI [34]: > 100 µM
TGI [35]: > 100 µM
TGI [36]: > 100 µM
TGI [37]: > 100 µM
TGI [38]: > 60.8 µM
TGI [39]: > 100 µM
TGI [40]: > 100 µM
TGI [41]: > 100 µM
TGI [42]: > 100 µM
TGI [43]: 1.41 µM
TGI [45]: > 100 µM
TGI [46]: > 100 µM
TGI [47]: > 100 µM
TGI [48]: > 100 µM
TGI [49]: > 100 µM
TGI [50]: > 100 µM
TGI [51]: > 100 µM
TGI [52]: > 100 µM
TGI [53]: > 33.9 µM
TGI [54]: > 100 µM
TGI [59]: > 57.7 µM
TGI [55]: > 100 µM
TGI [56]: > 100 µM
TGI [57]: > 100 µM
TGI [58]: > 100 µM
